# Test system: AF/AFL patients
# Assay: EURIDIS and ADONIS post hoc analysis: adverse events and ECG changes by timing of amiodarone stop
# Assay type: in vivo, human
# Conditions: for QTc-Fridericia > or = 500 msec: unit assumed
# Description: Methods: In EURIDIS and ADONIS studies mentioned in the article of the New England Journal of Medicine, 357, 10, Sep.
# Results: Dronedarone decreased AF/AFL recurrence compared to placebo (HR=0.64 [95% CI 0.44-0.95], P=0.022) in this subgroup. […] All the results are included in the table 1 below.
# In the table above, “A” means Amiodarone, “D” means” dronedarone, “PI” means Placebo, “n” is the number of patients tested with “PI” or “D”.
# [1] = A stopped more than 2 days before randomization, n = 35
# [2] = A stopped within 2 days before randomization, n = 98
# [3] = No amiodarone treatment before randomization, n = 680
compound,measurement,setting,value
"CCCCc1oc2ccc(NS(C)(=O)=O)cc2c1C(=O)c1ccc(OCCCN(CCCC)CCCC)cc1 [Dronedarone, 2-n-Butyl-3-[4-(3-di-n-butylaminopropoxy)benzoyl]-5-methylsul phonamidobenzofuran]",Bradyarrhythmia (%) (under adverse events with drug discontinuation),[1],0%
same,Bradyarrhythmia (%) (under serious adverse events),[1],0%
same,PR-interval > or = 200 msec and increase > or = 20 msec versus baseline,[1],22.9
same,Rate of Adverse Events with dronedarone discontinuation (%),[1],20.0%
same,Rate of Serious adverse events (%),[1],17.1%
same,QTc-Fridericia > or = 500 msec,[1],14.3%
same,Bradyarrhythmia (%) (under adverse events with drug discontinuation),[2],3.1%
same,Bradyarrhythmia (%) (under serious adverse events),[2],1%
same,PR-interval > or = 200 msec and increase > or = 20 msec versus baseline,[2],25.8
same,Rate of Adverse Events with dronedarone discontinuation (%),[2],8.2%
same,Rate of Serious adverse events (%),[2],15.3%
same,QTc-Fridericia > or = 500 msec,[2],7.9%
same,Bradyarrhythmia (%) (under adverse events with drug discontinuation),[3],0.7%
same,Bradyarrhythmia (%) (under serious adverse events),[3],1.3%
same,PR-interval > or = 200 msec and increase > or = 20 msec versus baseline,[3],28.0
same,Rate of Adverse Events with dronedarone discontinuation (%),[3],9.1%
same,Rate of Serious adverse events (%),[3],13.7%
same,QTc-Fridericia > or = 500 msec,[3],4.4%
same,Tolerability,small patient cohort switched rapidly from A to D,good tolerability
